The values below come from ChEMBL document CHEMBL4665648, “Potent and selective inhibitors of receptor-interacting protein kinase 1 that lack an aromatic back pocket group” (Bioorg Med Chem Lett, 2019).

Assay [1] concerns the target MAP kinase-activated protein kinase 5 (Homo sapiens) (UniProt Q8IW41). Description: Inhibition of recombinant human His-tagged full length PRAK expressed in baculovirus expression system using Ser/Thr 04 as substrate at 10 uM incubated for 60 mins by Z'-lyte assay relative to control.
In assay [2] the target is Tyrosine-protein kinase Yes (Homo sapiens) (UniProt P07947). Description: Inhibition of recombinant human GST-tagged full length YES expressed in baculovirus expression system using Tyr 02 as substrate at 10 uM incubated for 60 mins by Z'-Lyte assay relative to control.
The target of assay [3] is MAP kinase-activated protein kinase 2 (Homo sapiens) (UniProt P49137). Description: Inhibition of recombinant human His-tagged full length MAPKAPK2 expressed in Escherichia coli expression system using Ser/Thr 04 as substrate at 10 uM incubated for 60 mins by Z'-lyte assay relative to control.
Chain of MAP kinase-activated protein kinase 2 (Homo sapiens) (P49137 whole entry, looked up, the tested form may be a part): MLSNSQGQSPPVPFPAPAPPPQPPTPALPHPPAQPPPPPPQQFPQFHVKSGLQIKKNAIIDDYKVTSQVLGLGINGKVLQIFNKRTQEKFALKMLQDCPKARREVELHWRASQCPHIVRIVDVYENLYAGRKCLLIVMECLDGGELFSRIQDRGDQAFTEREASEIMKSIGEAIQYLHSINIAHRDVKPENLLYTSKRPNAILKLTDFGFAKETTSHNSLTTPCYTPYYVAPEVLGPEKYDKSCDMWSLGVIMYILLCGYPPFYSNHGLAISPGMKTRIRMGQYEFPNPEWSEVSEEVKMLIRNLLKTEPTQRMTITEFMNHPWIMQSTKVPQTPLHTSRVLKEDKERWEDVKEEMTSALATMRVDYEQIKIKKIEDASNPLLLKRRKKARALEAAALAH
The target in assay [4] is PAS domain-containing serine/threonine-protein kinase (Homo sapiens) (UniProt Q96RG2). Description: Inhibition of recombinant human GST-tagged PASK (879 to 1323 residues) expressed in baculovirus expression system using Ser/Thr 07 as substrate at 10 uM incubated for 60 mins by Z'-lyte assay relative to control.
For assay [5], the target named is SRSF protein kinase 1 (Homo sapiens) (UniProt Q96SB4). Description: Inhibition of recombinant human His-tagged full length SRPK1 expressed in baculovirus expression system using Ser/Thr 18 as substrate at 10 uM incubated for 60 mins by Z'-Lyte assay relative to control.
Chain of SRSF protein kinase 1 (Homo sapiens) (Q96SB4 whole entry): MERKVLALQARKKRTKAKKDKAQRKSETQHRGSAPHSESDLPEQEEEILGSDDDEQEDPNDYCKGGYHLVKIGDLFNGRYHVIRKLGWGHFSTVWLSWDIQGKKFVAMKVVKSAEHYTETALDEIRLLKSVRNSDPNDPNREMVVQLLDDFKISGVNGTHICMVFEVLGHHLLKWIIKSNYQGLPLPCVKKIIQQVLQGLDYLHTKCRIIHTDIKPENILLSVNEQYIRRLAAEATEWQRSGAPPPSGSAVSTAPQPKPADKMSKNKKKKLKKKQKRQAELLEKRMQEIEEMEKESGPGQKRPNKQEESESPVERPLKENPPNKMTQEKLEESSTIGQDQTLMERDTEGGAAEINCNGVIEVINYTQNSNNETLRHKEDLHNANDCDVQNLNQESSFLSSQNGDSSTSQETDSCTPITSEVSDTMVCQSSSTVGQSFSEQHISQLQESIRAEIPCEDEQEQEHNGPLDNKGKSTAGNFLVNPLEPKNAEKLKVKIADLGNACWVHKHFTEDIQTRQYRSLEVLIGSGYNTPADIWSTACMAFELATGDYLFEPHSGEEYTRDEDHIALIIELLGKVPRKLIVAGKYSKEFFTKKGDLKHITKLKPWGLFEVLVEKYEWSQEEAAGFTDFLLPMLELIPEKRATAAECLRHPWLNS
In assay [6] the target is Serine/threonine-protein kinase N1 (Homo sapiens) (UniProt Q16512). Description: Inhibition of recombinant human GST-tagged full length PRK1 expressed in baculovirus expression system using Ser/Thr 07 as substrate at 10 uM incubated for 60 mins by Z'-lyte assay relative to control.
Chain of Serine/threonine-protein kinase N1 (Homo sapiens) (Q16512 2-942 limits assumed): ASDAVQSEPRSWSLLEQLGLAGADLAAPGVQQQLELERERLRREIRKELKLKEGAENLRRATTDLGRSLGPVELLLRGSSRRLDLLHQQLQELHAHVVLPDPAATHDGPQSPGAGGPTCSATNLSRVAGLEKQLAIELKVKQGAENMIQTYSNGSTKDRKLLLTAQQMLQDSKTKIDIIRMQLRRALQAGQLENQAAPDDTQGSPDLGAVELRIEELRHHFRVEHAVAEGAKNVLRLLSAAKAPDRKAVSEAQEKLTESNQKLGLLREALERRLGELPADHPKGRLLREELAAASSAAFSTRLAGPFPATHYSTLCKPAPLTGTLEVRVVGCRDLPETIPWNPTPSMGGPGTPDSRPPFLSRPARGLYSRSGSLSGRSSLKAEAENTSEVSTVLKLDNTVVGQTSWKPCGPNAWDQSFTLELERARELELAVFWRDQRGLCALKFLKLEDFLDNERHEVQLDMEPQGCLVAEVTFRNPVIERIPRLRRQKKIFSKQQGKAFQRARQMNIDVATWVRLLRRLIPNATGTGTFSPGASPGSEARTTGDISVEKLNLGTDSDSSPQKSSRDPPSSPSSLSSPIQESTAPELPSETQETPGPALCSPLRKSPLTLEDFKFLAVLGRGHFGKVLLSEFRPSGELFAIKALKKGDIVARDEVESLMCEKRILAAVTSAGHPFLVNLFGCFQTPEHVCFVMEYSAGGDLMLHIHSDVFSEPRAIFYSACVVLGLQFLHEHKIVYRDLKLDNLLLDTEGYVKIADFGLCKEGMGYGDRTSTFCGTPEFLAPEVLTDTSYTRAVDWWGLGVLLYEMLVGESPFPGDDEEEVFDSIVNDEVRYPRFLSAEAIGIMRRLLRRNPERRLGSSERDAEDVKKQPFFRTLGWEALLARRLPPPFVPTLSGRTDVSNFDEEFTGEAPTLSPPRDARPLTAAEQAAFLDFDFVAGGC
For assay [7], the target named is Ephrin type-A receptor 8 (Homo sapiens) (UniProt P29322). Description: Inhibition of recombinant human GST-tagged EPHA8 (565 to 1005 residues) expressed in baculovirus expression system using Tyr 02 as substrate at 10 uM incubated for 60 mins by Z'-Lyte assay relative to control.
The target in assay [8] is Serine/threonine-protein kinase TBK1 (Homo sapiens) (UniProt Q9UHD2). Description: Inhibition of recombinant human GST-tagged full length TBK1 expressed in insect expression system using Ser/Thr 05 as substrate at 10 uM incubated for 60 mins by Z'-Lyte assay relative to control.
Assay [9] addresses Receptor-interacting serine/threonine-protein kinase 1 (Mus musculus) (UniProt Q60855). Description: Inhibition of mouse RIPK1 incubated for 2 hrs by fluorescence polarization assay.
The target of assay [10] is Macrophage-stimulating protein receptor (Homo sapiens) (UniProt Q04912). Description: Inhibition of recombinant human GST-tagged full length RON (983 to 1400 residues) expressed in baculovirus expression system using Tyr 06 as substrate at 10 uM incubated for 60 mins by Z'-Lyte assay relative to control.
Chain of Macrophage-stimulating protein receptor (Homo sapiens) (Q04912 whole entry, the tested form may be a part): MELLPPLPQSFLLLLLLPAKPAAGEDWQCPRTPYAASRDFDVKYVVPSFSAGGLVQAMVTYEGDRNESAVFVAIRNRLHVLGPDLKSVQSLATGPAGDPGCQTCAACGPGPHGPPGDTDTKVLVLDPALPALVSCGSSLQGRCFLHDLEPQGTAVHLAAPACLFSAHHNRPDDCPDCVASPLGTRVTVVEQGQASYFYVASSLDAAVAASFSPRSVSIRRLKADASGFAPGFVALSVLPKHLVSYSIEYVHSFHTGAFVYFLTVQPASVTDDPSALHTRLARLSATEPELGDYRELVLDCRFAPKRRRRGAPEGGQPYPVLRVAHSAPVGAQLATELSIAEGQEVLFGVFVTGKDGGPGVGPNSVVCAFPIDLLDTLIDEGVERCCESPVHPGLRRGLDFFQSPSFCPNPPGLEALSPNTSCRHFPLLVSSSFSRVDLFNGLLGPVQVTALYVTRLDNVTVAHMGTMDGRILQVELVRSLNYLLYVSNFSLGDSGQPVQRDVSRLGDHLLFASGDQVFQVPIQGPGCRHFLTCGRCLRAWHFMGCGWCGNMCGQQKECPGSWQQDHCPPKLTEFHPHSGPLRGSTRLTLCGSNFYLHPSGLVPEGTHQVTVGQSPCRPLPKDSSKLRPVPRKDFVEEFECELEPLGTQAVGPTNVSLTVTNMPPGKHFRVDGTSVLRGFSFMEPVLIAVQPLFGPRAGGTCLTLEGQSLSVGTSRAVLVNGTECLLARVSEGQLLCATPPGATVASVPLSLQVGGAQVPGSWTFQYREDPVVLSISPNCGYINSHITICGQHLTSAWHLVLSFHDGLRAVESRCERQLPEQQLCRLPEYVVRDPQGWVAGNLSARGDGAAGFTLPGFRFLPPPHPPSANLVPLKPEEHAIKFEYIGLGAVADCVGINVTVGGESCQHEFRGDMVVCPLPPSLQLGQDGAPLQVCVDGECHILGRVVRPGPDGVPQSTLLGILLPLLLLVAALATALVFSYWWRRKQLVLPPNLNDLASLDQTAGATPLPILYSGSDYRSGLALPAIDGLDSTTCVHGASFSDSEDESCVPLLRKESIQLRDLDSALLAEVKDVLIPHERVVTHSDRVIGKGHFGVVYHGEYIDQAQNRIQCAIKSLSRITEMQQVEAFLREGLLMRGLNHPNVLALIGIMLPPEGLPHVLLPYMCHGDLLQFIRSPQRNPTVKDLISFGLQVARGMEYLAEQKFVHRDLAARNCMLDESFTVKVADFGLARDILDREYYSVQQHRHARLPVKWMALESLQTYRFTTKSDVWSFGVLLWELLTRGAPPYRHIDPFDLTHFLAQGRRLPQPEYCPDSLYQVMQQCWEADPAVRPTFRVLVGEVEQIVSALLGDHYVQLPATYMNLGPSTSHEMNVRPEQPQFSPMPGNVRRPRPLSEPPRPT
Assay [11] deals with Cyclin-dependent kinase 5/CDK5 activator 1 (Homo sapiens) (UniProt Q00535+Q15078). Description: Inhibition of recombinant human His/GST-tagged full length CDK5/p25 expressed in baculovirus expression system using Ser/Thr 12 as substrate at 10 uM incubated for 60 mins by Z'-Lyte assay relative to control.
Chain of Cyclin-dependent kinase 5/CDK5 activator 1 (Homo sapiens) (Q00535 whole entry): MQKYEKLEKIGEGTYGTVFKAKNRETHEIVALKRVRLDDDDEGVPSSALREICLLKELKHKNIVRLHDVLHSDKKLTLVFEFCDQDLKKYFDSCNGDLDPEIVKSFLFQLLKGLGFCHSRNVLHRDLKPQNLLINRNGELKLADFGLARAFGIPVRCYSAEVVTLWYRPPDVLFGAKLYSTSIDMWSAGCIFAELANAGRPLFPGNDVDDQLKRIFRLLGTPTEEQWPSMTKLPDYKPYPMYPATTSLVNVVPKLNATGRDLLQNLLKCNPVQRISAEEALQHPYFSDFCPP
Chain of Cyclin-dependent kinase 5/CDK5 activator 1 (Homo sapiens) (Q15078 99-307 partner limits assumed): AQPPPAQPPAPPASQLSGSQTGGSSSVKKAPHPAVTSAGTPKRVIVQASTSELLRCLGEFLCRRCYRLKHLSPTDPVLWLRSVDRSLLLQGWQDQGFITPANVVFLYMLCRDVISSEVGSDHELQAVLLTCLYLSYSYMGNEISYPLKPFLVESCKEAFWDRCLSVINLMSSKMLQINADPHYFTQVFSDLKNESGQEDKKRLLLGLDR
The target of assay [12] is Serine/threonine-protein kinase 24 (Homo sapiens) (UniProt Q9Y6E0). Description: Inhibition of recombinant human GST-tagged full length MST3 expressed in baculovirus expression system using Ser/Thr 07 as substrate at 10 uM incubated for 60 mins by Z'-lyte assay relative to control.
Assay [13] has as its target Sphingosine kinase 1 (Homo sapiens) (UniProt Q9NYA1). Description: Inhibition of recombinant human GST-tagged full length SPHK1 expressed in baculovirus expression system using sphingosine lipid substrate mixture as substrate at 10 uM incubated for 60 mins by Adapta assay relative to control.
Assay [14] deals with MAP kinase-activated protein kinase 3 (Homo sapiens) (UniProt Q16644). Description: Inhibition of recombinant human His-tagged full length MAPKAPK3 expressed in baculovirus expression system using Ser/Thr 04 as substrate at 10 uM incubated for 60 mins by Z'-lyte assay relative to control.
Assay [15] concerns the target Inhibitor of nuclear factor kappa-B kinase subunit beta (Homo sapiens) (UniProt O14920). Description: Inhibition of recombinant human GST-tagged full length IKKbeta expressed in baculovirus expression system using Ser/Thr 05 as substrate at 10 uM incubated for 60 mins by Z'-Lyte assay relative to control.
Assay [16] addresses Ribosomal protein S6 kinase alpha-3 (Homo sapiens) (UniProt P51812). Description: Inhibition of recombinant human His-tagged full length RSK2 expressed in baculovirus expression system using Ser/Thr 06 as substrate at 10 uM incubated for 60 mins by Z'-Lyte assay relative to control.
Assay [17] addresses T1, Receptor-interacting serine/threonine-protein kinase 1 (Homo sapiens, UniProt Q13546).
T1 sequence (Q13546 whole entry): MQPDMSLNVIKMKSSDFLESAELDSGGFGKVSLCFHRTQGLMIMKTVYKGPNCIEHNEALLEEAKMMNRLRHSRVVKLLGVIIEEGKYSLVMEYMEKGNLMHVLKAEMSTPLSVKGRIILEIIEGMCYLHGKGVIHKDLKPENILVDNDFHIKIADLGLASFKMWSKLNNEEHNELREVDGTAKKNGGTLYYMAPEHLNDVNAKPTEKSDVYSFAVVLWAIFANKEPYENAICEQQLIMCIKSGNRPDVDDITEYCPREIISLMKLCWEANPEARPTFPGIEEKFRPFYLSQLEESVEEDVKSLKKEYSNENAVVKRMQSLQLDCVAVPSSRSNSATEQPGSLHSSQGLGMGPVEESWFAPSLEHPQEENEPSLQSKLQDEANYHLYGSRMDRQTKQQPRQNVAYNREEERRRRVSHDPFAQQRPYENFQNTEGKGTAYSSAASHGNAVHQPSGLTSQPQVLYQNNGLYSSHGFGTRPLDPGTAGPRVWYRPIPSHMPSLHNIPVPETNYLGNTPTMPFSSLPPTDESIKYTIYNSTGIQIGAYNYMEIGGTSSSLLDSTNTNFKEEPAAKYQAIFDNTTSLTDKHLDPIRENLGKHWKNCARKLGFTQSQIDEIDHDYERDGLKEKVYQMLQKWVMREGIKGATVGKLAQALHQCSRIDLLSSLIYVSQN
Description: Inhibition of recombinant human His/GST-tagged RIPK1 (2 to 257 residues) expressed in insect expression system incubated for 2 hrs by fluorescence polarization assay. To be noted: read-out: Ki(app).

The target of assay [18] is DNA-dependent protein kinase catalytic subunit (Homo sapiens) (UniProt P78527). Description: Inhibition of recombinant human untagged full length DNA-PK expressed in baculovirus expression system using Ser/Thr 26 as substrate at 10 uM incubated for 60 mins by Z'-Lyte assay relative to control.
Assay [19] has as its target Serine/threonine-protein kinase MRCK alpha (Homo sapiens) (UniProt Q5VT25). Description: Inhibition of recombinant human His-tagged MRCKA (1 to 473 residues) expressed in baculovirus expression system using Ser/Thr 13 as substrate at 10 uM incubated for 60 mins by Z'-lyte assay relative to control.

Active and inactive are the calls of the source. The rule behind the calls is not given here.

Chain of Receptor-interacting serine/threonine-protein kinase 1 (Mus musculus) (Q60855 whole entry, the tested form may be a part): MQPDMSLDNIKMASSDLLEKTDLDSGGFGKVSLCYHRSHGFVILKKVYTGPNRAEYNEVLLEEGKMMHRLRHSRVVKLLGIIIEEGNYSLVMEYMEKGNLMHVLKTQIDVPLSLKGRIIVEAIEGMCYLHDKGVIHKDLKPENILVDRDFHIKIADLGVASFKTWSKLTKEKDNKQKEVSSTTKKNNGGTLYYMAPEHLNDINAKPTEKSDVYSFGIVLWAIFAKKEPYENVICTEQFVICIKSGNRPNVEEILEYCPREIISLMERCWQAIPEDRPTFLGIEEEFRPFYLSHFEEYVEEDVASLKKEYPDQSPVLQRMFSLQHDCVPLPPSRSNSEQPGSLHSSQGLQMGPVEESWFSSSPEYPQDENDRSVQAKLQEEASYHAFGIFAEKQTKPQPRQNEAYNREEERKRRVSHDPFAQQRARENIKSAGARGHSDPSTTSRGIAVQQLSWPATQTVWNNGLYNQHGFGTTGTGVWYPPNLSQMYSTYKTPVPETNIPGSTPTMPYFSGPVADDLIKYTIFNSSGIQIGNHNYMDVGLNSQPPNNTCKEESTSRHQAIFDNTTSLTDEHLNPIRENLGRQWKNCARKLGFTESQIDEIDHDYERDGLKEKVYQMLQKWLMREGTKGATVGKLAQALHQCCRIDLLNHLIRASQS
Chain of Sphingosine kinase 1 (Homo sapiens) (Q9NYA1 whole entry): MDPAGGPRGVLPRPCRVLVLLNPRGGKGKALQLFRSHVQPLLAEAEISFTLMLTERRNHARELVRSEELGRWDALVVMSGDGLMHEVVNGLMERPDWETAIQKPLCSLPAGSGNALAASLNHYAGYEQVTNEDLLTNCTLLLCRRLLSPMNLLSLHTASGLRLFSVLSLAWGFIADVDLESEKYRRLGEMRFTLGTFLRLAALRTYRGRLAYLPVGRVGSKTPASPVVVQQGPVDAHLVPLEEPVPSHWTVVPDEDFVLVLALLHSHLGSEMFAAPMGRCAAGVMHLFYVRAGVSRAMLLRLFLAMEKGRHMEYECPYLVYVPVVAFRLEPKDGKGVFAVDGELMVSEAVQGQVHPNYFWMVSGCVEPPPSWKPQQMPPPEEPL

As to `CN1C(=O)[C@@H](NC(=O)c2n[nH]c3ncc(C(F)(F)C(F)(F)F)cc23)COc2ccccc21`, the inhibition in assay [1] was 5%; in [2] it was 2.5%; in [3] it was 4%; in assay [4], 2%; in [5] it was -2.5%; in [6] it was 1%. Besides, the inhibition is 0% in assay [7]; 1.5% in assay [8]; 6% in assay [10]; 14.5% in assay [11]; 6% in [12]; -8% in [13]. Also, the inhibition in [14] is 0.5%; in [15] it was 0.5%; in assay [16], 2%; in assay [18], 4.5%; in assay [19], 0%. Moreover, the inhibition result in [9] was “inactive”. Besides, the Ki in assay [17] came to 6 nM.

By inhibition is commonly meant the change of the read-out against control, counted positive when it falls.
